Assay [1] has as its target T1, Calcitonin receptor (Homo sapiens, UniProt P30988). Note: in other assays of this panel Not Active means under 50% inhibition at 10 µM.
T1 sequence (P30988 whole entry): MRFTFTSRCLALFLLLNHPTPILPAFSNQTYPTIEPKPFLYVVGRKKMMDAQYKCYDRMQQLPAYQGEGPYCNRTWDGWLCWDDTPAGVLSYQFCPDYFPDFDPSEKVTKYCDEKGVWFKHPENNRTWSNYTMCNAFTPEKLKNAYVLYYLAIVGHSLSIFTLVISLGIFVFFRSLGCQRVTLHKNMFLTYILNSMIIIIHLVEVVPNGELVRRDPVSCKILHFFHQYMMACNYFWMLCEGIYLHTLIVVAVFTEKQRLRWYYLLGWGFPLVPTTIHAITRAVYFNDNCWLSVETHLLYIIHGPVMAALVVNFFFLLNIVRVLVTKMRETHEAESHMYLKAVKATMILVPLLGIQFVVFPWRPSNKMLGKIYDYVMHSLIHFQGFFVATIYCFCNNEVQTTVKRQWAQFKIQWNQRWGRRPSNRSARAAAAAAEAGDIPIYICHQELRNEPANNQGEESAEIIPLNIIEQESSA
The class given is cell membranes, Membrane. The settings on record: t47d.

In assay [2] the target is T2, Alpha-1D adrenergic receptor (Homo sapiens, UniProt P25100). Note: in other assays of this panel Not Active means under 50% inhibition at 10 µM.
T2 sequence (P25100 whole entry): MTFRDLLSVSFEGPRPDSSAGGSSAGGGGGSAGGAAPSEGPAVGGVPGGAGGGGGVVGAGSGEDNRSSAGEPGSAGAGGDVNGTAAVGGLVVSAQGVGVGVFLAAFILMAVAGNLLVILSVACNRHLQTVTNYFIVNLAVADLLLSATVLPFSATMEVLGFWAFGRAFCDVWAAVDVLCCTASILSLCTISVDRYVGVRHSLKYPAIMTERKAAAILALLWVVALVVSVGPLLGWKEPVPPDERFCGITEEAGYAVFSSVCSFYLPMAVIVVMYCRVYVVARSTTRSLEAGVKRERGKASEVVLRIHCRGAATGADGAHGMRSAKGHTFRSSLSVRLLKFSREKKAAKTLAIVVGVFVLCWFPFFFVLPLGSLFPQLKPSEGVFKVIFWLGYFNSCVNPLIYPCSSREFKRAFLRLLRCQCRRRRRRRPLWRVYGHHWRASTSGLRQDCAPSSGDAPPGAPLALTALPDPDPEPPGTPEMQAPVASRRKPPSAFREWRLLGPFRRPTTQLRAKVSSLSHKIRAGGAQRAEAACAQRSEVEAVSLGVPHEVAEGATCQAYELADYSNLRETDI
The class given is cell membranes, HEK293, Membrane. Particulars: hek293.

The nature of assay [3]: DRUGMATRIX: Glutamate, AMPA radioligand binding (ligand: [3H] AMPA). Particulars: Not Active = under 50% inhibition at 10 µM. The class given is cell membranes, Rattus norvegicus, Wistar, Cerebral cortex, Membrane.
Assay [4] deals with T3, Receptor-type tyrosine-protein phosphatase C (Homo sapiens, UniProt P08575).
T3 sequence (P08575 whole entry): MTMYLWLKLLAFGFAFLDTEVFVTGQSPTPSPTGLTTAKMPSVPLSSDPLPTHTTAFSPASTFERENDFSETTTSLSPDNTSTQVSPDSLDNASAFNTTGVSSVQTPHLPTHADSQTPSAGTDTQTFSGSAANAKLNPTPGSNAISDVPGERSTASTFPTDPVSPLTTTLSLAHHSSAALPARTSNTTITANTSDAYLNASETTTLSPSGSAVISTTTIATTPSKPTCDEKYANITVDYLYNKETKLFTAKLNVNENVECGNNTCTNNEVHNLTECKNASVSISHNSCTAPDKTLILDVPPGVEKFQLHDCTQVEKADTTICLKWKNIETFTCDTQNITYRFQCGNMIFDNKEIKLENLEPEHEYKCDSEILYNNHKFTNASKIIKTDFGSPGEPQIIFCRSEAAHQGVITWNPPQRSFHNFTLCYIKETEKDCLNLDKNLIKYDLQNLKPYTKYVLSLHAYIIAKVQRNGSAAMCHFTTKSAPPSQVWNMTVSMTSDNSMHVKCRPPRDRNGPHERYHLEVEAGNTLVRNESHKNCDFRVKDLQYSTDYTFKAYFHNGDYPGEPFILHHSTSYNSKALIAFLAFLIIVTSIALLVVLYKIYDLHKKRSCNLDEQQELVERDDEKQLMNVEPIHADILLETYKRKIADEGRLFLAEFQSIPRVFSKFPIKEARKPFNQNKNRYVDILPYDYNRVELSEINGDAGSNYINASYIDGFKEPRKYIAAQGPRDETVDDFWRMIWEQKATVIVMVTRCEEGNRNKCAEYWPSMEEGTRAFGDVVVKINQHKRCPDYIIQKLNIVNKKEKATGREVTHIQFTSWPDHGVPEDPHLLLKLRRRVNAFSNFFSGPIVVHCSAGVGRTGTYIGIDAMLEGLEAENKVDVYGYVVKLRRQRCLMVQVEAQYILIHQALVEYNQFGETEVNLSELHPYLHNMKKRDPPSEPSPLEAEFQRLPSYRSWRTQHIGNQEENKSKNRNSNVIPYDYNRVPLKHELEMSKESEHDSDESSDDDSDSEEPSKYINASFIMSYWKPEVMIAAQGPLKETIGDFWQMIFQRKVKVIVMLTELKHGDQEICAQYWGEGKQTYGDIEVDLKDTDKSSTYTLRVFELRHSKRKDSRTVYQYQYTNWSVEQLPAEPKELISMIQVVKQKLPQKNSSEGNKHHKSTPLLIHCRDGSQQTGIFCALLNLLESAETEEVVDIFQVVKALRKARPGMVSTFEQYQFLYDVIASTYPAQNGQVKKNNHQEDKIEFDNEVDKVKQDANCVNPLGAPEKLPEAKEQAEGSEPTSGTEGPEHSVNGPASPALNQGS
Further details: species or system Escherichia coli.

Assay [5] addresses Sodium-dependent dopamine transporter (Homo sapiens, UniProt Q01959). Nature of the assay: DRUGMATRIX: Dopamine Transporter radioligand binding (ligand: [125I] RTI-55). The settings on record: cho-k1, Not Active = under 50% inhibition at 10 µM. The class given is cell membranes, CHO-K1, Membrane.
Assay [6] concerns the target Substance-P receptor (Homo sapiens, UniProt P25103). The format is cell membranes, CHO, Membrane. The settings on record: cho. Note: in other assays of this panel Not Active means under 50% inhibition at 10 µM.

Sequence of Substance-P receptor (P25103 whole entry): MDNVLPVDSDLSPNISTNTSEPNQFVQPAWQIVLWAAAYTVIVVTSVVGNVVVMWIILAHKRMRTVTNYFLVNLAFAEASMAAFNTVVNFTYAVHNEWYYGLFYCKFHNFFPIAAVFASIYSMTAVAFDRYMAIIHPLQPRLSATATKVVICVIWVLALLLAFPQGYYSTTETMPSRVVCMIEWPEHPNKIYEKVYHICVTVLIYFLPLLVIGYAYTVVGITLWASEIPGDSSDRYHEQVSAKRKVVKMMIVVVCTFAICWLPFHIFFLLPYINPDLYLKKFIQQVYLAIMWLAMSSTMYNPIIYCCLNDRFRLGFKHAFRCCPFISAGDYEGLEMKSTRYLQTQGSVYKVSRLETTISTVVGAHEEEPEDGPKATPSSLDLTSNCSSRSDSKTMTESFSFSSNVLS
Sequence of Sodium-dependent dopamine transporter (Q01959 whole entry): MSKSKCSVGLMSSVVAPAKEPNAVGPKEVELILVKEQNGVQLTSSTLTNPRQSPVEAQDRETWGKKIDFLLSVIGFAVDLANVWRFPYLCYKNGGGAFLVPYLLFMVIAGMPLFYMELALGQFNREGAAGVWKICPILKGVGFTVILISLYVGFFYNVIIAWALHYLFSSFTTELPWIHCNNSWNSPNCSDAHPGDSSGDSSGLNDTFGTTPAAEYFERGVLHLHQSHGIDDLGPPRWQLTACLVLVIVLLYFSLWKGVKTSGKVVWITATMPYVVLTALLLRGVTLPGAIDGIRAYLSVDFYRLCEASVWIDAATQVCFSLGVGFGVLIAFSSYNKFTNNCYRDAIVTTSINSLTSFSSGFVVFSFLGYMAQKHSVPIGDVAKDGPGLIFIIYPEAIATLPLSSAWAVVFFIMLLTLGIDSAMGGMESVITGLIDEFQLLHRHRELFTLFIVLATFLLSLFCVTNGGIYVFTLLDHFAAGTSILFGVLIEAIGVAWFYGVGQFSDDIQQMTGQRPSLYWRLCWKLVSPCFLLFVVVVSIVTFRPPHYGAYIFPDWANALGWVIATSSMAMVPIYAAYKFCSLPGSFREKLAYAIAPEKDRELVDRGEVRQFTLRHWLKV

What is called IC50 is the point on the concentration scale where inhibition reaches its midpoint. A word on the Ki: it is the equilibrium dissociation constant of an inhibitor or competing ligand from its target. Regarding `CN[C@H](CC(C)C)C(=O)N[C@H]1C(=O)N[C@@H](CC(N)=O)C(=O)N[C@H]2C(=O)N[C@H]3C(=O)N[C@H](C(=O)N[C@H](C(=O)O)c4cc(O)cc(O)c4-c4cc3ccc4O)[C@H](O)c3ccc(c(Cl)c3)Oc3cc2cc(c3O[C@@H]2O[C@H](CO)[C@@H](O)[C@H](O)[C@H]2O[C@H]2C[C@](C)(N)[C@H](O)[C@H](C)O2)Oc2ccc(cc2Cl)[C@H]1O` [VANCOMYCIN], the IC50 entry in assay [1], in assay [2], in assay [3], in assay [4], in assay [5] and in assay [6] was “Not Active” in each case. The Ki entry in assay [3] is reported as “Not Active”.

Turning to `COc1ccc(C(CN(C)C)C2(O)CCCCC2)cc1` (stereo unspecified) [VENLAFAXINE], the half-inhibitory concentration (IC50) entry in assay [1], in assay [2], in assay [3], in assay [4], in assay [5] and in assay [6] was “Not Active” each time. The Ki entry in assay [3] is “Not Active”.

Consider IVERMECTIN, for which the IC50 result is “Not Active” in assay [1]; “Not Active” in assay [2]; “Not Active” in assay [3]; “Not Active” in assay [4]; 4.46 µM in assay [5] (read-out: IC50); “Not Active” in assay [6]. The inhibitory constant (Ki) entry in assay [1] is “Not Active”; in assay [2], “Not Active”; in assay [3], “Not Active”; in assay [4], “Not Active”; in assay [5] (read-out: Ki), 3.54 µM; in assay [6], “Not Active”.
